Reference: patent US20240424112A1, “TETRAHYDROISOQUINOLINE COMPOUNDS THAT ARE KEAP1 BINDERS” (C4X Discovery Limited, priority 2021, published 2024)

Key:
[1] = target: T1, BRD4 short isoform (Homo sapiens, UniProt O60885); test: BRD4 degradation assay (Western blot, MDA-MB-468 cells), short isoform; format: cell-based; conditions: MDA-MB-468, n = 2
T1 construct: endogenous in cells; host or cells: MDA-MB-468
Description: (§1) BRD4 Degradation Assay Protocol Summary
(§2) MDA-MB-468 cells were cultured routinely in DMEM supplemented with 10% heat inactivated FBS and 1% Penicillin-Streptomycin (Thermofisher Scientific) at 37° C. 5% CO2. Cells were seeded in 6-well plates at 4*10^5 cells per well and left to adhere overnight. Example compounds were solubilised in DMSO to make 10 mM stocks followed by serial dilutions in DMSO to 200× final concentration. These were further diluted in culture media to give 20× treatment stocks before addition to cells to a 1× final concentration. Cells were then incubated at 37° C. 5% CO2 for 24 or 48 hours after which cells were lysed in RIPA buffer supplemented with cOmplete Mini Protease Inhibitor Cocktail and PhosSTOP™ (Roche). Lysates were clarified by centrifugation at 13,000 RPM for 10 minutes and the protein concentration of the resulting supernatants determined by BCA assay (ThermoFisher Scientific) as per manufacturer's instructions. Lysates were denatured and reduced in NuPAGE LDS sample buffer and sample reducing agent before 10 μg was loaded onto NuPAGE […] Tris-Acetate Mini Protein Gels (ThermoFisher Scientific). Protein was transferred to nitrocellulose membranes using a Trans-Blot Turbo Transfer System (Bio-Rad) before blocking for 1 hour in Intercept (TBS) Blocking Buffer (Li-Cor). Membranes were then incubated overnight with BRD4 (ab128874; Abcam) and α-tubulin (T6074; Sigma-Aldrich) antibodies diluted 1:2000 and 1:16,000 respectively in Tris-buffered saline 0.05% Tween 20 (TBS-T). The following day, membranes were washed with TBS-T before addition of anti-rabbit IRDye 800 CW and anti-mouse IRDye 680LT secondary antibodies (LiCor) (diluted 1:10,000 in TBS-T) for one hour. Membranes were then washed with TBS-T before imaging using a LICOR Odyssey Infrared Imaging System with Image Studio Ver 5.2 software (LiCor). Densitometry analysis was carried out in the LiCor image studio software where BRD4 signal was normalised to α-tubulin signal. Percentage degradation of BRD4 relative to the DMSO treated negative control was calculated as: =100−(signal of interest/signal of control sample*100). BRD4 degradation by dBET1 was used as positive control for each plate. Data obtained for the percentage degradation of BRD4 upon treatment with the Example compounds 1-6 and Comparative Example compounds 1-3 at 24 hour incubation are shown in Table 2 and with 48 hour incubation are shown in Table 3.

[2] = target: T2, BRD4 (Homo sapiens, UniProt O60885); test: BRD4 degradation assay (Western blot, MDA-MB-468 cells), isoform not given; format: cell-based
T2 construct: endogenous in cells; host or cells: MDA-MB-468
Description: as §1
MDA-MB-468 cells were cultured routinely in DMEM supplemented with 10% heat inactivated FBS and 1% Penicillin-Streptomycin (Thermofisher Scientific) at 37° C. 5% CO2. Cells were seeded in 6-well plates at 4*10^5 cells per well and left to adhere overnight. Example compounds were solubilised in DMSO to make 10 mM stocks followed by serial dilutions in DMSO to 200× final concentration. These were further diluted in culture media to give 20× treatment stocks before addition to cells to a 1× final concentration. Cells were then incubated at 37° C. 5% CO2 for 24 or 48 hours after which cells were lysed in RIPA buffer supplemented with cOmplete Mini Protease Inhibitor Cocktail and PhosSTOP™ (Roche). Lysates were clarified by centrifugation at 13,000 RPM for 10 minutes and the protein concentration of the resulting supernatants determined by BCA assay (ThermoFisher Scientific) as per manufacturer's instructions. Lysates were denatured and reduced in NuPAGE LDS sample buffer and sample reducing agent before 10 μg was loaded onto NuPAGE […] Tris-Acetate Mini Protein Gels (ThermoFisher Scientific). […] Percentage degradation of BRD4 relative to the DMSO treated negative control was calculated as: =100−(signal of interest/signal of control sample*100). […]

[3] = system: NRF2 mediated gene NAD(P)H:quinone acceptor oxidoreductase 1 (NQO1) mRNA in BEAS-2B cells; test: Beas2B NQO1 mRNA cell based assay; conditions: Homo sapiens, 24 h, vs vehicle (0.1% DMSO), read-out: EC50 (increase in NQO1 mRNA)
Description: Beas2B NQO1 mRNA Cell Based Assay
The up-regulation of the NRF2 mediated gene NAD(P)H:quinone acceptor oxidoreductase 1 (NQO1) was measured using the following assay method: BEAS-2B cells (ATCC CRL-9609) were plated in 96-well clear plates at 20,000 cells/well in 75 μL of cell culture media and incubated overnight (37° C., 5% CO2). On day 2, 25 μL of compound or controls were added to the cells for 24 h. On day 3, the medium was aspirated from the plate and the Cells-to-CT™ 1-Step TaqMan® Kit (Ambion A25603) was used to perform expression analysis directly from cultured cells without RNA purification according to the manufacturer's instructions.
Briefly, cells were washed with ice cold PBS and 22.5 μL of room-temperature DNase/Lysis solution was added to the cells and incubated at room temperature for 5 minutes. To stop the reaction, 2.25 μL of stop solution was added to the cell lysate. The samples were diluted 1:5 using nuclease free water and 2.5 μL transferred into the PCR plate. Real-time PCR was performed using the C-1000 Thermal Cycler (Bio-Rad) using human beta actin as the internal control. The cDNA was amplified with a specific primer for NQO1 using the 1-step RT-PCR master mix (Ambion Cells-to-CT™ 1-Step TaqMan® Kit A25603). The primers/probes sets that were used for amplification of cDNA were obtained from TaqMan Gene Expression Assays (Applied Biosystems). The comparative CT (ΔΔCT) relative quantification method was used to calculate the relative mRNA level of the target gene NQO1 as described in the Applied Biosystems Chemistry Guide. The data are expressed as an increase in target gene mRNA compared to vehicle (0.1% DMSO) control and the EC50 values were determined by fitting the data to a four parameter logistic fit using XLfit or XE Runner within ActivityBase.

[4] = target: T3, BRD4 long isoform (Homo sapiens, UniProt O60885); test: BRD4 degradation assay (Western blot, MDA-MB-468 cells), long isoform; format: cell-based; conditions: MDA-MB-468, n = 2
T3 construct: endogenous in cells; host or cells: MDA-MB-468
Description: as §1, §2

| SMILES | % Mean Degradation of BRD4 ([1]; 24 h, 0.01 μM) [%] | % Mean Degradation of BRD4 ([1]; 24 h, 0.1 μM) [%] | % Mean Degradation of BRD4 ([1]; 24 h, 1 μM) [%] | % Mean Degradation of BRD4 ([1]; 48 h, 0.01 μM) [%] | % Mean Degradation of BRD4 ([1]; 48 h, 0.1 μM) [%] | % Mean Degradation of BRD4 ([1]; 48 h, 1 μM) [%] | degradation of BRD4 ([2]; at 0.01 μM) | % Mean Degradation of BRD4 ([4]; 24 h, 0.01 μM) [%] | % Mean Degradation of BRD4 ([4]; 24 h, 0.1 μM) [%] | % Mean Degradation of BRD4 ([4]; 24 h, 1 μM) [%] | % Mean Degradation of BRD4 ([4]; 48 h, 0.01 μM) [%] | % Mean Degradation of BRD4 ([4]; 48 h, 0.1 μM) [%] | % Mean Degradation of BRD4 ([4]; 48 h, 1 μM) [%] | % Mean Degradation of BRD4 ([1]; 24 h, 5 μM) [%] | % Mean Degradation of BRD4 ([1]; 48 h, 5 μM) [%] | % Mean Degradation of BRD4 ([4]; 24 h, 5 μM) [%] | % Mean Degradation of BRD4 ([4]; 48 h, 5 μM) [%] | target protein (BRD4) degradation ([2]; at ≥0.1 μM) | EC50 [3] [nM] |
| --- | --- | --- | --- | --- | --- | --- | --- | --- | --- | --- | --- | --- | --- | --- | --- | --- | --- | --- | --- |
| Cc1sc2c(c1C)C(c1ccc(Cl)cc1)=N[C@@H](CC(=O)NCC(=O)NCCn1nnc(COc3ccc(Cl)c4c3[C@@H](CN3CC5(CC5)CC3=O)N(C(=O)[C@@H]3CCCC[C@]3(C)C(=O)O)CC4)c1C)c1nnc(C)n1-2 [Example 1, (1S,2R)-2-((S)-5-Chloro-8-((1-(2-(2-(2-((S)-4-(4-chlorophenyl)-2,3,9-trimethyl-6H-thieno[3,2-f][1,2,4]triazolo[4,3-a][1,4]diazepin-6-yl)acetamido)acetamido)ethyl)-5-methyl-1H-1,2,3-triazol-4-yl)methoxy)-1-((6-oxo-5-azaspiro[2.4]heptan-5-yl)methyl)-1,2,3,4-tetrahydroisoquinoline-2-carbonyl)-1-methylcyclohexane-1-carboxylic acid] | 69 | 97 | 96 | 68 | 93 | 100 | up to 75% | 75 | 99 | 101 | 74 | 97 | 99 | – | – | – | – | almost complete target protein degradation | 187 |
| Cc1sc2c(c1C)C(c1ccc(Cl)cc1)=N[C@@H](CC(=O)NCCOCCNC(=O)[C@@]1(C)CCCC[C@H]1C(=O)N1CCc3c(Cl)ccc(OCc4nnn(C)c4C)c3[C@H]1CN1CC3(CC3)CC1=O)c1nnc(C)n1-2 [Comparative Example 2, (1S,2R)-2-((S)-5-chloro-8-((1,5-dimethyl-1H-1,2,3-triazol-4-yl)methoxy)-1-((6-oxo-5-azaspiro[2.4]heptan-5-yl)methyl)-1,2,3,4-tetrahydroisoquinoline-2-carbonyl)-N-(2-(2-(2-((S)-4-(4-chlorophenyl)-2,3,9-trimethyl-6H-thieno[3,2-f][1,2,4]triazolo[4,3-a][1,4]diazepin-6-yl)acetamido)ethoxy)ethyl)-1-methylcyclohexane-1-carboxamide, reference compound] | – | −6 | 9 | – | −15 | 13 | – | – | −33 | 3 | – | −26 | −61 | 26 | 20 | 14 | −124 | – | 75 |
| CNC(=O)[C@@]1(C)CCCC[C@H]1C(=O)N1CCc2c(Cl)ccc(OCc3nnn(CCNC(=O)CNC(=O)C[C@@H]4N=C(c5ccc(Cl)cc5)c5c(sc(C)c5C)-n5c(C)nnc54)c3C)c2[C@H]1CN1CC2(CC2)CC1=O [Example 2] | – | 84 | 95 | – | 71 | 92 | – | – | 77 | 93 | – | 78 | 93 | 97 | 93 | 91 | 94 | – | 458 |

Second part, led by results:

| % Mean Degradation of BRD4 ([1]; 24 h, 0.01 μM) [%] | % Mean Degradation of BRD4 ([1]; 24 h, 0.1 μM) [%] | % Mean Degradation of BRD4 ([1]; 24 h, 1 μM) [%] | % Mean Degradation of BRD4 ([1]; 48 h, 0.01 μM) [%] | % Mean Degradation of BRD4 ([1]; 48 h, 0.1 μM) [%] | % Mean Degradation of BRD4 ([1]; 48 h, 1 μM) [%] | degradation of BRD4 ([2]; at 0.01 μM) | % Mean Degradation of BRD4 ([4]; 24 h, 0.01 μM) [%] | % Mean Degradation of BRD4 ([4]; 24 h, 0.1 μM) [%] | % Mean Degradation of BRD4 ([4]; 24 h, 1 μM) [%] | % Mean Degradation of BRD4 ([4]; 48 h, 0.01 μM) [%] | % Mean Degradation of BRD4 ([4]; 48 h, 0.1 μM) [%] | % Mean Degradation of BRD4 ([4]; 48 h, 1 μM) [%] | % Mean Degradation of BRD4 ([1]; 24 h, 5 μM) [%] | % Mean Degradation of BRD4 ([1]; 48 h, 5 μM) [%] | % Mean Degradation of BRD4 ([4]; 24 h, 5 μM) [%] | % Mean Degradation of BRD4 ([4]; 48 h, 5 μM) [%] | SMILES | target protein (BRD4) degradation ([2]; at ≥0.1 μM) | EC50 [3] [nM] |
| --- | --- | --- | --- | --- | --- | --- | --- | --- | --- | --- | --- | --- | --- | --- | --- | --- | --- | --- | --- |
| – | −5 | 76 | – | 40 | 78 | – | – | 1 | 65 | – | 34 | 78 | 78 | 80 | 69 | 82 | Cc1sc2c(c1C)C(c1ccc(Cl)cc1)=N[C@@H](CC(=O)NCCOCCC(=O)NCCOCc1c(COc3ccc(Cl)c4c3[C@@H](CN3CC5(CC5)CC3=O)N(C(=O)[C@@H]3CCCC[C@]3(C)C(=O)O)CC4)nnn1C)c1nnc(C)n1-2 [Example 5, (1S,2R)-2-((S)-5-Chloro-8-((5-(14-((S)-4-(4-chlorophenyl)-2,3,9-trimethyl-6H-thieno[3,2-f][1,2,4]triazolo[4,3-a][1,4]diazepin-6-yl)-6,13-dioxo-2,9-dioxa-5,12-diazatetradecyl)-1-methyl-1H-1,2,3-triazol-4-yl)methoxy)-1-((6-oxo-5-azaspiro[2.4]heptan-5-yl)methyl)-1,2,3,4-tetrahydroisoquinoline-2-carbonyl)-1-methylcyclohexane-1-carboxylic acid] | – | 337 |
| – | 18 | 65 | – | −2 | 65 | – | – | −37 | 26 | – | −19 | 56 | 75 | 77 | 43 | 71 | Cc1sc2c(c1C)C(c1ccc(Cl)cc1)=N[C@@H](CC(=O)NCCC(=O)NCCOCc1c(COc3ccc(Cl)c4c3[C@@H](CN3CC5(CC5)CC3=O)N(C(=O)[C@@H]3CCCC[C@]3(C)C(=O)O)CC4)nnn1C)c1nnc(C)n1-2 [Example 4, (1S,2R)-2-((S)-5-Chloro-8-((5-((2-(3-(2-((S)-4-(4-chlorophenyl)-2,3,9-trimethyl-6H-thieno[3,2-f][1,2,4]triazolo[4,3-a][1,4]diazepin-6-yl)acetamido)propanamido)ethoxy)methyl)-1-methyl-1H-1,2,3-triazol-4-yl)methoxy)-1-((6-oxo-5-azaspiro[2.4]heptan-5-yl)methyl)-1,2,3,4-tetrahydroisoguinoline-2-carbonyl)-1-methylcyclohexane-1-carboxylic acid] | – | 660 |
